# Patent publication US20080241085A1, “COMPOSITIONS FOR USE IN DARKENING THE SKIN” (priority 2007, published 2008)
# Legend:
# Type in all cases: in vivo
# [1] = tested on: human skin; test: Visual evaluation of skin darkening after topical treatment of a human subject's arm; design: key to visual skin darkening, 2 WEEKS / visual skin darkening, 4 WEEKS / visual skin darkening, 8 WEEKS / visual skin darkening, 8 WKS + 1 WK / visual skin darkening, 8 WKS + 2 WKS / visual skin darkening, 8 WKS + 3 WKS: ++: Obvious visible tan-like color; +: Weak visible tan-like color; 0: No visible tan-like color; conditions: for visual skin darkening, 2 WEEKS: one volunteer, 2 weeks of treatment; for visual skin darkening, 8 WEEKS: 8 weeks of treatment; for induction of visible skin darkening (in words): 1% topical twice a day, six to eight weeks; for visual skin darkening, 8 WKS + 1 WK: 8 weeks topical treatment followed by 1 week without any treatment; for visual skin darkening, 8 WKS + 2 WKS: 8 weeks topical treatment followed by 2 weeks without any treatment; for visual skin darkening, 8 WKS + 3 WKS: 8 weeks topical treatment followed by 3 weeks without any treatment
# Procedure: All the phospholipids were dissolved in an ethanol/propylene glycol vehicle (70/30, v/v) at the concentration of 1% of solid phospholipid powder. Preparations 1, 2 and 3 were tested for their ability to induce skin darkening in one human subject, with informed consent. One volunteer, Fitzpatrick skin type II, with no history of skin cancer, no skin disease or unusual skin reaction, and no topical treatments on the study sites (the upper and lower parts of the arm) within a period of 30 days before enrollment and during the treatment period, was treated with preparations 1-3. Different preparations were used in four different studies. Two studies used the upper part of the arm, and two other studies used the lower part of the arm, which were treated twice a day for six to eight weeks with 10 μl of test phospholipid solutions (1%) in ethanol: propylene glycol (70:30, v/v) vehicle, or with vehicle alone. No other products were used and no sun exposure occurred during the treatment period. Skin darkening was evaluated visually, and in some cases also by using a chromameter (ChromaMeter, Minolta, Osaka, Japan) and DRS (see Nguyen B. C., Br. J. Dermatol. 2003, 149(2):332-40). Measurements were taken at 4 and 8 weeks. The DRS instrument was assembled using a tungsten halogen light source (Model LS- 1, Ocean Optics, Dunedin, Fla., USA), Miniature Fiber Optic Spectrometer (Model USB2000, Ocean Optics, Dunedin, Fla., USA) and custom-designed bifurcated fiber optic probe (Multimode Fiber Optics Inc, East Hanover, N.J., USA). The scale used for reporting visual skin darkening is defined in the Table 1. The visual tan-like color was somewhat stronger on the upper arm, relative to lower arm, possibly because of slightly darker baseline color of the lower arm than the upper arm. The visual results are summarized in Table 2, including the fading time of the darker color, when treatment was terminated at 8 weeks and skin color was followed for additional three weeks.
# [2] = tested on: human skin; test: Skin colour L* by chromameter after topical treatment of a human subject's arm; conditions: 4 weeks of treatment, 1% topical twice a day; vehicle 67.28
# Procedure: (§1) All the phospholipids were dissolved in an ethanol/propylene glycol vehicle (70/30, v/v) at the concentration of 1% of solid phospholipid powder.
# (§2) Preparations 1, 2 and 3 were tested for their ability to induce skin darkening in one human subject, with informed consent. One volunteer, Fitzpatrick skin type II, with no history of skin cancer, no skin disease or unusual skin reaction, and no topical treatments on the study sites (the upper and lower parts of the arm) within a period of 30 days before enrollment and during the treatment period, was treated with preparations 1-3. Different preparations were used in four different studies. Two studies used the upper part of the arm, and two other studies used the lower part of the arm, which were treated twice a day for six to eight weeks with 10 μl of test phospholipid solutions (1%) in ethanol: propylene glycol (70:30, v/v) vehicle, or with vehicle alone. No other products were used and no sun exposure occurred during the treatment period.
# (§3) Skin darkening was evaluated visually, and in some cases also by using a chromameter (ChromaMeter, Minolta, Osaka, Japan) and DRS (see Nguyen B. C., Br. J. Dermatol. 2003, 149(2):332-40). Measurements were taken at 4 and 8 weeks. […]
# [3] = tested on: human skin; test: Melanin deposition by DRS after topical treatment of a human subject's arm; conditions: 4 weeks of treatment, 1% topical twice a day; vehicle 1.248
# Procedure: as §1, §2, §3
# [4] = after termination of 8 weeks topical treatment
# [5] = 1% in ethanol/propylene glycol (70/30), 10 μl twice a day, topical, arm
Substance,"time at which darkening started to fade after termination of topical treatment [1, 4]","time the darkening remained visible after the end of the topical treatment [1, 4]","change of visible skin darkening with routine daily activities (e.g., after water and soap washing) ([1]; during topical treatment)",L* (Chromameter) [2],"visual skin darkening, 2 WEEKS [1, 5]","visual skin darkening, 4 WEEKS ([1]; 1% in ethanol/propylene glycol (70/30), 10 μl twice a day, topical, arm, 4 weeks of treatment)","visual skin darkening, 8 WEEKS [1, 5]",induction of visible skin darkening (in words) [1],"visual skin darkening, 8 WKS + 1 WK [1]","visual skin darkening, 8 WKS + 2 WKS [1]","visual skin darkening, 8 WKS + 3 WKS [1]","Melanin (DRS, arbitrary units) [3]"
lysophosphatidylcholine [LPC],14 to 20 days,at least 14 days,did not change,–,–,–,–,–,–,–,–,–
lysophosphatidylcholine [Preparation 1],–,–,–,68.27,+,++,++,induced visible skin darkening,++,+,0,1.274 arbitrary units
Lysophosphatidylcholine [Preparation 2],–,–,–,67.69,+,–,++,induced visible skin darkening,++,+,0,1.304 arbitrary units
